{"source": "ChEMBL document CHEMBL5465560", "about": "“Selectivity Literature for EUbOPEN Chemogenomic Library” (2024)", "conditions_in_all_cases": "at 10 µM", "key": {"[1]": {"molecular_target": "Receptor-type tyrosine-protein kinase FLT3 (Homo sapiens) (UniProt P36888)", "test": "(§1) Selectivity interaction (KinomeScan (DiscoverX)) EUB0000092b FLT3"}, "[2]": {"system": "T1, Receptor-type tyrosine-protein kinase FLT3 (Homo sapiens), P36888 [K663Q]", "T1 sequence (whole entry)": "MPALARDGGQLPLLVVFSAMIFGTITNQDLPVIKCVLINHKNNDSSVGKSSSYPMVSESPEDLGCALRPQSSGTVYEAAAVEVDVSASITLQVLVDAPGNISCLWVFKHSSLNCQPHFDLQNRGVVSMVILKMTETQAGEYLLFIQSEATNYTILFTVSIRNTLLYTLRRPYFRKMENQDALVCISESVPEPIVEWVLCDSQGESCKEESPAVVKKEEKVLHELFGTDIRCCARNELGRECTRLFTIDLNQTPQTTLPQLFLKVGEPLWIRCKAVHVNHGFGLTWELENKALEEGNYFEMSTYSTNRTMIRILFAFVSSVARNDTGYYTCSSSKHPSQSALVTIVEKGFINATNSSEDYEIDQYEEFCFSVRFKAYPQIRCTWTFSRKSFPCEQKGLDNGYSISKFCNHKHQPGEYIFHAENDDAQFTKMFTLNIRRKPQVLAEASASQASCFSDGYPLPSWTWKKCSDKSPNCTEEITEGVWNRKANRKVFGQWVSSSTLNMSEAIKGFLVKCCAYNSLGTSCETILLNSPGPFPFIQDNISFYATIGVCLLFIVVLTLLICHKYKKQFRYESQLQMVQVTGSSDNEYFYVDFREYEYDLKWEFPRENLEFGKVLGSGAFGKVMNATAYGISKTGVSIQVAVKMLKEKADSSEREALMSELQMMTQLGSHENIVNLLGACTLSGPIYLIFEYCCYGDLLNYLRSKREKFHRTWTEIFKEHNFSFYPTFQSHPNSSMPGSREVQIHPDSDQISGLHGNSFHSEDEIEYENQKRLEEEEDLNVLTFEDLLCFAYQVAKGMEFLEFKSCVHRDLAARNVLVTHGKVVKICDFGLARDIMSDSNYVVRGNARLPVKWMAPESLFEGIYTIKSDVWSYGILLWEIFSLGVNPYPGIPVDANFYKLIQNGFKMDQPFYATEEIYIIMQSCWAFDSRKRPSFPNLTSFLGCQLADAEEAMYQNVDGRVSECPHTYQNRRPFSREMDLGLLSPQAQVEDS", "test": "as §1"}, "[3]": {"system": "T2, Receptor-type tyrosine-protein kinase FLT3 (Homo sapiens), P36888 [D835H]", "T2 sequence (whole entry)": "T1 sequence (whole entry) with Q663K, D835H", "test": "as §1"}, "[4]": {"system": "Receptor-type tyrosine-protein kinase FLT3 (Homo sapiens), P36888 [UNDEFINED MUTATION]", "test": "as §1"}, "[5]": {"system": "T3, Receptor-type tyrosine-protein kinase FLT3 (Homo sapiens), P36888 [D835Y]", "T3 sequence (whole entry)": "T1 sequence (whole entry) with Q663K, D835Y", "test": "as §1"}}, "note": "Positions count from the first letter of the chain named."}
{"smiles": "CCC(=O)N1CCN(c2ccc(-n3c(=O)ccc4cnc5ccc(-c6cnc7ccccc7c6)cc5c43)cc2C(F)(F)F)CC1", "values": [{"measurement": "% of control", "setting": "[1]", "value": 16, "unit": "%"}, {"measurement": "% of control", "setting": "[2]", "value": 23, "unit": "%"}, {"measurement": "% of control", "setting": "[3]", "value": 18, "unit": "%"}, {"measurement": "% of control", "setting": "[4]", "value": 29, "unit": "%"}, {"measurement": "% of control", "setting": "[5]", "value": 16, "unit": "%"}]}
